In patent US20190300851A1, “HUMAN STEM CELL DERIVED ENDOTHELIAL CELLS, ENDOTHELIAL-HEPATOCYTE CO-CULTURE SYSTEM AND USES THEREOF” (AGENCY FOR SCIENCE, TECHNOLOGY AND RESEARCH, priority 2016, published 2019):
“Also recorded” adds a separate entry of the source. Read-outs that look alike come from different tables or passages of the source.

Columns and labels:
[1] = system: IL-1β-stimulated hPSC-ECs; assay: Inflammatory marker gene expression (qPCR) in IL-1β-stimulated hPSC-ECs, monoculture; assay type: cell-based; conditions: for gene expression of inflammatory markers versus IL-1β stimulated levels: 10 μM, up to 72 hours, IL-1β-stimulated hPSC-ECs, monoculture
Protocol: (§1) After the hPSC colonies attached, they were first induced to drive early mesoderm differentiation for 36 hours, using a chemically defined media, supplemented with human recombinant FGF2 (20 ng/ml, R&D Systems, cat. no. 233-FB), LY294002 (10 μM, Sigma, cat. no. L9908), and human recombinant BMP4 (10 ng/ml, R&D Systems, cat. no. 314-BP). Lateral plate mesoderm was further induced for another 3.5 days in media supplemented with human recombinant FGF2 (20 ng/ml) and BMP4 (50 ng/ml), with media change every 2 days. On day 5, the lateral plate mesoderm population was trypsinized using TrypLE Express (Gibco, cat. no. 12604) and plated on matrigel-coated plates in the same basal media supplemented with FGF2 (4 ng/ml), SB431542 (10 μM, Sigma, cat. no. S4317) and VEGF (50 ng/ml, R&D Systems, cat. no. 293-VE) with media change every 2-3 days. On day 10, PECAM1-expressing endothelial cells were sorted using fluorescence-activated cell sorting with PECAM1 antibody (Biolegend, cat. no. 303110). The PECAM1+ cells were plated at a density of 5×10^4/cm^2 onto collagen I-coated plate in commercial media EGM-2 (Lonza, cat. no. CC-3162). For every 500 ml EGM-2 media used, the following supplements are included: human epidermal growth factor (0.5 ml); VEGF, 0.5 ml; R3-insulin growth factor-1, 0.5 ml; Ascorbic acid, 0.5 ml; Hydrocortisone, 0.2 ml; hFibroblast growth factor-beta, 2.0 ml; FBS, 10.0 ml; Gentamicin Amphotericin, 0.5 ml. hPSC-ECs were passaged using TrypLE Express when they reached more than 75% confluency. Fresh complete EGM-2 media were replaced every 2-3 days. All experiments were performed on cells up to passage 10. hPSC-ECs derived from three different cell lines, H9-ESCs (FIGS. 1-5), IMR90-iPSCs and BJ-iPSCs (FIGS. 7-8), were functionally characterized and used in inflammatory activation assays. In EC marker and functional characterization, human coronary artery ECs (HCAECs) were used as positive control, while HeLa cells and human hepatocellular carcinoma cells (HUH7) were used as negative controls.
Total RNA was prepared using RNeasy mini kit (Qiagen, cat. no. 74104). Each RNA sample (250 ng) was reverse transcribed into cDNA using Maxima First Strand cDNA Synthesis kit (Thermo, cat. no. K1641). qPCR was performed on a StepOnePlus Real-Time PCR system (Thermo) using FAST SYBR green master mix (Thermo, cat. no. 4385616). Expression levels were normalized to the housekeeping gene glyceraldehyde 3-phosphate dehydrogenase (GAPDH).

NFκB [2] = assay: NFκB nuclear translocation (immunostaining) in IL-1β-stimulated hPSC-ECs, monoculture; assay type: cell-based, human; conditions: for NFκB nuclear translocation levels: 10 μM, IL-1β-stimulated hPSC-ECs, monoculture
Protocol: as §1
(§2) Cells were fixed with 4% paraformaldehyde (Nacalai Tesque, cat. no. 09154-14) and permeabilized by 0.5% Triton X-100 (Acros Organics, cat. no. 215680010) in PBS with Ca^2+ and MG^2+ at room temperature. Blocking was performed using PBS with 10% serum overnight at 4° C. Cells were incubated with the respective primary antibody diluted in 0.1% serum containing PBS for 1 hour and secondary antibodies in 0.1% serum containing PBS for another hour. Washes were performed twice using 0.1% serum containing PBS. DAPI (1 μg/ml, Thermo, cat. no. D3571) was used to stain the cell nucleus for 10 min.

IL-8 [3] = assay: IL-8 ELISA of conditioned media of IL-1β-stimulated hPSC-ECs, monoculture; assay type: cell-based, human; conditions: for IL-8 protein levels from conditioned media: 10 μM, 48 hours, IL-1β-stimulated hPSC-ECs, monoculture
Protocol: as §1
(§3) Conditioned EGM-2 media were collected, and concentration of human IL-8 was determined using the human IL-8 ELISA kit (Invitrogen, cat. no. KHC0081) according to manufacturer's instructions.

[4] = system: co-culture of hPSC-ECs and hPSC-HEPs; assay: LC-MS metabolite profile in co-cultured media of hPSC-ECs and hPSC-HEPs; assay type: in vitro ADME, human
Protocol: (§4) H9-ESCs were used to generate the ECs and hepatocytes for co-culture experiments and assays with nutraceuticals. Both cell types were derived from an isogenic source of hPSC to ensure a robust endothelial-hepatic model without confounding phenotypic differences due to genetic variations. The IBIDI μ-slide 2×9 wells were used for creating the co-culture setup. Each minor well was first coated with Collagen I and then a total of 2.5×10^5 hPSC-ECs and hPSC-HEPs were seeded in individual wells in a 1:1 ratio within a major well to allow equivalent contribution of paracrine factors between the two cell types (FIG. 5A). After cell attachment, the media was changed to 1:1 William's E and EGM-2 without serum, to be commonly shared by hPSC-ECs and hPSC-HEPs in a major well. Upon overnight serum starvation, the co-cultures were pre-conditioned with 10 μM of Quercetin or Genistein for 48 hours prior to IL-1β stimulation.
(§5) The metabolic potential of the hPSC-HEPs and primary rat hepatocytes (freshly isolated according to our previously established protocol) were tested by exposing them to nutraceuticals quercetin and genistein (10 μM) over different durations. Internal standard (Emodin, 10 ng/ml) was added to the conditioned media. The SPE column (Phenomenex, Strata C18-E, 55 μm, 70 Å) was conditioned by washing with 1 ml methanol and then 2 ml DI water. […]

hPSC-HEPs = assay: LC-MS metabolic profile of nutraceuticals by hPSC-HEPs; assay type: in vitro ADME, human; conditions: 10 μM
Protocol: (§6) Hepatocytes were generated from hPSCs by a growth factor-based differentiation protocol described in our previous protocol. After 20 days of differentiation, the cells were harvested using a serial 2× TrypLE Express treatment and further dissociated into single cells by passing them through a 40 μm cell strainer. These single cells were then seeded at 2.5×10^5 cells per well in a Collagen I (50 μg/ml, Biolaboratories, Cat. No.: 354236)-coated dishes. Attachment and recovery were promoted by seeding them in step IV differentiation medium with Hepatocyte growth factor (R&D, Cat. No.: 294-HGN-005), Follistatin (R&D, Cat. No.: FS-288), Oncostatin (R&D, Cat. No.: 295-OM-010) and Y-27632 (Rock Inhibitor) to prevent anoikis in the freshly harvested hPSC-HEPs. Next day, media was changed to Williams E medium (Sigma, Cat. No.: W1878) without serum and cells were serum starved overnight prior to nutraceutical treatments. Nutraceuticals quercetin (Sigma, Cat. No.: Q4951) and genistein (Sigma, Cat. No.: G6649) were administered at a single dose of 10 μM. Hepatocytes in this work were derived from H9-ESCs. In hepatic characterization, primary human hepatocytes (PHH) and HUH7 cells were used as positive controls, while HeLa cells were used as negative control.
as §5, with “water. Conditioned media was added into the column and 1.5 mL 30% methanol was added to elute the impurity such as phenol red in the medium. 0.1% Formic acid methanol was added to the column to elute all the metabolites and internal standard out to a 15 mL tube. Liquid in the 15 mL tube was dried under N2 in a sample concentrator with 30° C. heater.” for “water.”

[5] = system: IL-1β-stimulated hPSC-HEPs; assay: Inflammatory marker gene expression (qPCR) in IL-1β-stimulated hPSC-HEPs; assay type: cell-based, human; conditions: 10 μM, 48 hours
Protocol: as §6
Total RNA was prepared using RNeasy mini kit (Qiagen, cat. no. 74104). […]

IL-8 [6] = assay: Endothelial-hepatocyte co-culture: IL-8 protein; assay type: cell-based, human; conditions: co-culture of hPSC-ECs with hPSC-HEPs, 10 μM for 48 hours prior to IL-1β stimulation
Protocol: as §4, §3

IL-8 [7] = assay: IL-8 ELISA of conditioned media of IL-1β-stimulated hPSC-HEPs; assay type: cell-based, human; conditions: 10 μM, 48 hours
Protocol: as §6, with “In hepatic characterization, primary human hepatocytes (PHH) and HUH7 cells were used as positive controls, while HeLa cells were used as negative control.” left out
as §3

[8] = higher concentrations; cited from earlier work
primary rat hepatocytes = assay: LC-MS metabolic profile of nutraceuticals by primary rat hepatocytes; assay type: in vitro ADME; conditions: 10 μM
Protocol: The metabolic potential of the hPSC-HEPs and primary rat hepatocytes (freshly isolated according to our previously established protocol) were tested by exposing them to nutraceuticals quercetin and genistein (10 μM) over different durations. Internal standard (Emodin, 10 ng/ml) was added to the conditioned media. The SPE column (Phenomenex, Strata C18-E, 55 μm, 70 Å) was conditioned by washing with 1 ml methanol and then 2 ml DI water. Conditioned media was added into the column and 1.5 mL 30% methanol was added to elute the impurity such as phenol red in the medium. 0.1% Formic acid methanol was added to the column to elute all the metabolites and internal standard out to a 15 mL tube. Liquid in the 15 mL tube was dried under N2 in a sample concentrator with 30° C. heater. After drying the sample, 100 μL of 0.1% formic acid methanol was added to the 15 mL tube and vortex for 30 s and transfer to another 1.5 mL tube. The samples were then centrifuged at 13,000 rpm for 10 min at 4° C. and 10 μl of the supernatant was injected into LC-MS. High performance liquid chromatography combined with electrospray ionization ion trap time-of-flight multistage mass spectrometry (HPLC-DAD-ESI-ITTOF-MSn) analyses were performed with a Shimadzu LCMS-IT-TOF instrument, which was composed of two LC-20AD pumps, an SIL-20AC autosampler, a CTO-20A column oven, a CBM-20A system controller, an ESI ion source, and an IT-TOF mass spectrometer (Shimadzu, Kyoto, Japan).

hPSC-ECs = assay: LC-MS metabolic profile of nutraceuticals by hPSC-ECs; assay type: in vitro ADME, human; conditions: hPSC-EC conditioned media
[9] = cited from earlier work
NFκB [10] = assay: Endothelial-hepatocyte co-culture: NFκB nuclear translocation in IL-1β-stimulated hPSC-ECs; assay type: cell-based, human; conditions: co-culture of hPSC-ECs with hPSC-HEPs, 10 μM for 48 hours prior to IL-1β stimulation
Protocol: as §4
Cells were fixed with 4% paraformaldehyde (Nacalai Tesque, cat. no. 09154-14) and permeabilized by 0.5% Triton X-100 (Acros Organics, cat. no. 215680010) in PBS with Ca^2+ and MG^2+ at room temperature. Blocking was performed using PBS with 10% serum overnight at 4° C. Cells were incubated with the respective primary antibody diluted in 0.1% serum containing PBS for 1 hour and secondary antibodies in 0.1% serum containing PBS for another hour. […]

NFκB [11] = assay: hPSC-HEP conditioned media on IL-1β-stimulated hPSC-ECs: NFκB nuclear translocation; assay type: cell-based, human; conditions: hPSC-HEP conditioned media (10 μM, 48 hour) on IL-1β-stimulated hPSC-ECs
Protocol: (§7) HPSC-HEPs (1.25×10^5 cells/cm^2) were cultured for 48 hour in 1:1 William's E medium+EGM-2 without serum containing 10 μM Quercetin or 10 μM Genistein. Conditioned media from hPSC-HEPs treated with quercetin or genistein were collected, and added to hPSC-ECs (that were serum starved overnight) along with 20 ng/ml of IL-13 for determination of NFκB nuclear colocalization (at 1 hour), gene expression profile of inflammatory markers (at 6 hour), and IL-8 protein levels (1 day) upon inflammation.
as §2

[12] = system: hPSC-HEP conditioned media treated on hPSC-ECs; assay: LC-MS metabolite profile in hPSC-HEP conditioned media treated on hPSC-ECs; assay type: in vitro ADME, human; conditions: conditioned media setting
Protocol: as §7
as §5, with “water. Conditioned media was added into the column and 1.5 mL 30% methanol was added to elute the impurity such as phenol red in the medium. 0.1% Formic acid methanol was added to the column to elute all the metabolites and internal standard out to a 15 mL tube. Liquid in the 15 mL tube was dried under N2 in a sample concentrator with 30° C. heater.” for “water.”

[13] = BJ-ECs and IMR90-ECs, IL-1β stimulation

Compound	inflammatory gene (marker) expression [5]	IL-8 protein levels / secretion (IL-8 [6])	production of IL-8 protein from conditioned media (IL-8 [7])	gene expression of inflammatory markers versus IL-1β stimulated levels [1]	NFκB nuclear translocation levels (NFκB [2])	plasma concentrations [9] [nM]	NFκB nuclear translocation (colocalization) (NFκB [10])	NFκB nuclear translocation (NFκB [11])	IL-8 protein levels from conditioned media (IL-8 [3])	other results
IL-1β: human recombinant inflammatory cytokine, interleukin-1 beta, used to stimulate inflammation [reference compound]										expression of inflammatory genes [1, 13]: up-regulation; expression of inflammatory genes versus unstimulated ([1]; H9-derived hPSC-ECs, human recombinant IL-1β 20 ng/ml, 6 hours): significant up-regulation; NFκB nuclear translocation (NFκB [2]; [13]): increase; nuclear translocation of NFκB (NFκB [2]; H9-derived hPSC-ECs, IL-1β 20 ng/ml, 1 hour): evident; IL-8 production (IL-8 [3]; [13]): elevated; production of IL-8 from conditioned media versus unstimulated cells (IL-8 [3]; H9-derived hPSC-ECs, IL-1β-stimulated): significantly higher
O=c1c(O)c(-c2ccc(O)c(O)c2)oc2cc(O)cc(O)c12 [quercetin]	significant reduction; also recorded: decreased most of the inflammatory marker expression	remarkably decreased; also recorded: significantly reduced	significantly suppressed	did not show substantial reduction	remained elevated	300 to 3500	significant suppression; also recorded: significantly decreased	did not seem to inhibit	no significant reduction	metabolites detectable in medium [4]: detectable levels of various metabolites; optimal duration of conversion into metabolites (most metabolites peaked) (hPSC-HEPs; human): 48 h; safety and tolerability [8]: safe and well tolerated; time of treatment by which substantial metabolites had emerged (primary rat hepatocytes; rat): ≤ 6 h; level of parent nutraceutical over time (hPSC-ECs): decrease over time; bioavailability in human plasma ([9]; human plasma): very low
O=c1c(-c2ccc(O)cc2)coc2cc(O)cc(O)c12 [genistein]	significant reduction; also recorded: decreased most of the inflammatory marker expression	remarkably decreased; also recorded: significantly reduced	significantly suppressed	did not show substantial reduction	remained elevated	30 to 16340	significant suppression; also recorded: significantly decreased	did not seem to inhibit	no significant reduction	metabolites detectable in medium ([4]; endothelial-hepatic co-culture, LC-MS): detectable levels of various metabolites; levels of metabolites over time (hPSC-HEPs; hPSC-HEPs, LC-MS): increased over time; also recorded: increased with time; also recorded: giving rise to metabolites; level of parent nutraceutical over time (hPSC-HEPs; in the presence of hPSC-HEPs, LC-MS): gradually declined over time; metabolites detectable in medium [12]: but not in the conditioned media setting; level of parent nutraceutical over time (primary rat hepatocytes; freshly isolated primary rat hepatocytes, LC-MS): declined over time; formation of metabolites (primary rat hepatocytes; primary rat hepatocytes, LC-MS): giving rise to metabolites
